What is called Ki is the equilibrium dissociation constant of an inhibitor or competing ligand from its target.

Among the data in patent US10100022B2, “Sphingosine kinase inhibitors” (University of Virginia Patent Foundation, priority 2014, dated 2018) are Ki values, retold here.

Assay [1] deals with T1, human sphingosine kinase type 2 (hSPHK2) (Homo sapiens, UniProt Q9NRA0).
T1 construct: purchased; host or cells: Sf9 insect cells (baculovirus)
T1 sequence (Q9NRA0 1-654): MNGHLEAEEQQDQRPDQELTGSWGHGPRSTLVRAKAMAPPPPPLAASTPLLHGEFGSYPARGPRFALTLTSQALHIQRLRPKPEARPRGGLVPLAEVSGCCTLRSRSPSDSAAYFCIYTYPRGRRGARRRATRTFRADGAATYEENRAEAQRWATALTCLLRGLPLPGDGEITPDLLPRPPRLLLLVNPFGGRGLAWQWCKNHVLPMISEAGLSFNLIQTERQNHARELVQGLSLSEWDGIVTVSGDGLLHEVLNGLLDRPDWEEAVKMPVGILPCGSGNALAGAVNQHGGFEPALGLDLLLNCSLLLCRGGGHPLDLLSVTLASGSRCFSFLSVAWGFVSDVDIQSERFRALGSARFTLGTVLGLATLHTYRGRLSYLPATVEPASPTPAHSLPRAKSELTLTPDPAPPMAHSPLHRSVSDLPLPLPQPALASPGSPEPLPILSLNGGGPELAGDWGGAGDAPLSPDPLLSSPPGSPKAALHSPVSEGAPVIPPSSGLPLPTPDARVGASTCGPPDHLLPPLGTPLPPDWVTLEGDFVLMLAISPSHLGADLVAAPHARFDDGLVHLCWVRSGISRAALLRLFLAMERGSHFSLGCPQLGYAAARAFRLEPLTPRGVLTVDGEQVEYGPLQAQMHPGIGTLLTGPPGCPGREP
In words: Sphingosine kinase assay, recombinant human SPHK2 ([32P]S1P product, scintillation counting). To be noted: read-out: activity hSPHK2 (range estimate of KI). The format is biochemical. On the procedure:
(§1) Recombinant baculovirus encoding human sphingosine kinase type 1 (SPHK1) was used to infect Sf9 insect cells and after 2-5 days, cleared lysates were prepared and used without further purification. Human SPHK2, which was partially purified from baculovirus-infected Sf9 cell lysates, was purchased from a commercial source. Sphingosine kinase assays were performed using standard protocols. Product [^32P]S1P was recovered by binding to cation exchange paper and quantified by scintillation counting.

The target in assay [2] is T2, human sphingosine kinase type 1 (hSPHK1) (Homo sapiens, UniProt Q9NYA1).
T2 construct: made in house; host or cells: Sf9 insect cells (baculovirus)
T2 sequence (Q9NYA1 whole entry): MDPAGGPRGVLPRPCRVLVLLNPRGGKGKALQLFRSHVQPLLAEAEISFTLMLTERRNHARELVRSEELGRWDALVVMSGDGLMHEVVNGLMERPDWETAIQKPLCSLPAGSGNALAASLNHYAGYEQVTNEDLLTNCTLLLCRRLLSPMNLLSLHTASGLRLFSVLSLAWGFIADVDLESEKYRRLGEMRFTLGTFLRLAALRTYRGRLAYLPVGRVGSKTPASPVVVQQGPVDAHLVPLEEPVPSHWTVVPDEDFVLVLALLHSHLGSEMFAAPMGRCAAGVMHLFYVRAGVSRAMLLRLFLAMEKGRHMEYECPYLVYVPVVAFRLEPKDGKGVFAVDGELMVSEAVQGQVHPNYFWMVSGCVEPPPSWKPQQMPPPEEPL
Nature of the assay: Sphingosine kinase assay, recombinant human SPHK1 ([32P]S1P product, scintillation counting). The format is biochemical. To be noted: read-out: activity hSPHK1 (range estimate of KI). On the procedure:
as §1

Structures are written as SMILES. Structures can show the parent of a compound that is named as a salt. Bounds are passed on as bounds.

For `CC(C)COc1ccc2cc(-c3noc([C@@H]4[C@@H](O)CCN4C(=N)N)n3)ccc2c1` [Compound 15A, Amino((2S,3S)-3-hydroxy-2-(3-(6-isobutoxynaphthalen-2-yl)-1,2,4-oxadiazol-5-yl)pyrrolidin-1-yl)methaniminium chloride], the Ki is > 10 µM in assay [1] and 1 to 10 µM in assay [2].
Turning to `CCCCCCOc1ccc2cc(-c3noc([C@@H]4CCCN4C(=N)N)n3)ccc2c1` [Compound 16A, (S)-amino(2-(3-(6-(hexyloxy)naphthalen-2-yl)-1,2,4-oxadiazol-5-yl)pyrrolidin-1-yl)methaniminium chloride], the Ki in assay [1] and in assay [2] was > 10 µM in each case.
For `CCCCCCCCCCn1ccc2ccc(-c3noc([C@@H]4CCCN4C(=N)N)n3)cc21` [Compound 18A, (S)-amino(2-(3-(1-decyl-1H-indol-6-yl)-1,2,4-oxadiazol-5-yl)pyrrolidin-1-yl)methaniminium chloride], the Ki in assay [1] is 1 to 10 µM; in assay [2], > 10 µM.
The corresponding values for `CCCCCCCCOc1ccc(-c2noc([C@@H]3CC(F)(F)CN3C(=N)N)n2)cc1C(F)(F)F` [Compound 19A, (S)-amino(4,4-difluoro-2-(3-(4-(octyloxy)-3-(trifluoromethyl)phenyl)-1,2,4-oxadiazol-5-yl)pyrrolidin-1-yl)methaniminium chloride] are > 10 µM and > 10 µM.
Turning to `CCCCCCCCOc1ccc(-c2noc([C@@H]3[C@@H](CO)CCN3C(=N)N)n2)cc1C(F)(F)F` [Compound 20a, 2,2,2-trifluoroacetate], the Ki in assay [1] and in assay [2] was < 1 µM each time.
For the compound `CCCCCCCCOc1ccc(-c2noc([C@@H]3C=CCN3C(=N)N)n2)cc1C(F)(F)F` [Compound 21A, (S)-amino(2-(3-(4-(octyloxy)-3-(trifluoromethyl)phenyl)-1,2,4-oxadiazol-5-yl)-2,5-dihydro-1H-pyrrol-1-yl)methaniminium chloride], the Ki in assay [1] was < 1 µM; in assay [2] it was > 10 µM.
Take `N=C(N)N1CC[C@H](O)[C@H]1c1nc(-c2ccc(OCCCc3ccc(C(F)(F)F)cc3)c(C(F)(F)F)c2)no1` [Compound 22A, amino((2S,3S)-3-hydroxy-2-(3-(3-(trifluoromethyl)-4-(3-(4-(trifluoromethyl)phenyl)propoxy)phenyl)-1,2,4-oxadiazol-5-yl)pyrrolidin-1-yl)methaniminium chloride]: the Ki in assay [1] was < 1 µM; in assay [2], 1 to 10 µM.
Taken in the same sequence, the figures for `N=C(N)N1CC[C@H](O)[C@H]1c1nc(-c2ccc(OCCc3ccc(C(F)(F)F)cc3)c(C(F)(F)F)c2)no1` [Compound 23A, amino((2S,3S)-3-hydroxy-2-(3-(3-(trifluoromethyl)-4-(4-(trifluoromethyl)phenethoxy)phenyl)-1,2,4-oxadiazol-5-yl)pyrrolidin-1-yl)methaniminium chloride] were < 1 µM and 1 to 10 µM.
Taken in the same sequence, the figures for `N=C(N)N1CC[C@H](O)[C@H]1c1nc(-c2ccc(OCc3ccc(C(F)(F)F)cc3)c(C(F)(F)F)c2)no1` [Compound 24A, amino((2S,3S)-3-hydroxy-2-(3-(3-(trifluoromethyl)-4-((4-(trifluoromethyl)benzyl)oxy)phenyl)-1,2,4-oxadiazol-5-yl)pyrrolidin-1-yl)methaniminium chloride] were < 1 µM and 1 to 10 µM.
As for `N=C(N)N1CC[C@H](O)[C@H]1c1nc(-c2ccc(OCCCCc3ccc(C(F)(F)F)cc3)c(C(F)(F)F)c2)no1` [Compound 25A, amino((2S,3S)-3-hydroxy-2-(3-(3-(trifluoromethyl)-4-(4-(4-(trifluoromethyl)phenyl)butoxy)phenyl)-1,2,4-oxadiazol-5-yl)pyrrolidin-1-yl)methaniminium chloride], the Ki in assay [1] and in assay [2] was < 1 µM each time.
Take `N=C(N)N1CCC[C@H]1c1nc(-c2ccc(OCCCCc3ccc(C(F)(F)F)cc3)c(C(F)(F)F)c2)no1` [Compound 26A, (S)-amino(2-(3-(3-(trifluoromethyl)-4-(4-(4-(trifluoromethyl)phenyl)butoxy)phenyl)-1,2,4-oxadiazol-5-yl)pyrrolidin-1-yl)methaniminium chloride]: the Ki is < 1 µM in assay [1] and > 10 µM in assay [2].
Take `N=C(N)N1CC[C@H](O)[C@H]1c1nc(-c2ccc(OCCCc3ccc4c(c3)OCCO4)c(C(F)(F)F)c2)no1` [Compound 27A]: the Ki was 1 to 10 µM in assay [1] and > 10 µM in assay [2].
As to `N=C(N)N1CC[C@H](O)[C@H]1c1nc(-c2ccc(OCCCc3ccc(Cl)c(Cl)c3)c(C(F)(F)F)c2)no1` [Compound 28A], the Ki in assay [1] is < 1 µM; in assay [2] it was 1 to 10 µM.
As to `N=C(N)N1CCC[C@H]1c1nc(-c2ccc(OCCCc3ccc4c(c3)OCCO4)c(C(F)(F)F)c2)no1` [Compound 29A, (S)-amino(2-(3-(4-(3-(2,3-dihydrobenzo[b][1,4]dioxin-6-yl)propoxy)-3-(trifluoromethyl)phenyl)-1,2,4-oxadiazol-5-yl)pyrrolidin-1-yl)methaniminium chloride], the Ki in assay [1] and in assay [2] was > 10 µM each time.
For `N=C(N)N1CCC[C@H]1c1nc(-c2ccc(OCCCc3ccc(Cl)c(Cl)c3)c(C(F)(F)F)c2)no1` [Compound 30A, (S)-amino(2-(3-(4-(3-(3,4-dichlorophenyl)propoxy)-3-(trifluoromethyl)phenyl)-1,2,4-oxadiazol-5-yl)pyrrolidin-1-yl)methaniminium chloride], the results for the Ki in assay [1] and in assay [2] were < 1 µM and > 10 µM, respectively.
Turning to `N=C(N)N1C[C@H](O)C[C@H]1c1nc(-c2ccc(OCCCc3ccc(Cl)c(Cl)c3)c(C(F)(F)F)c2)no1` [Compound 31A, amino((2S,4R)-2-(3-(4-(3-(3,4-dichlorophenyl)propoxy)-3-(trifluoromethyl)phenyl)-1,2,4-oxadiazol-5-yl)-4-hydroxypyrrolidin-1-yl)methaniminium chloride], the Ki in assay [1] is < 1 µM; in assay [2], > 10 µM.
Regarding `N=C(N)N1CCC[C@H]1c1nc(-c2ccc(OCCCc3ccc(C(F)(F)F)cc3)c(C(F)(F)F)c2)no1` [Compound 32A, (S)-amino(2-(3-(3-(trifluoromethyl)-4-(3-(4-(trifluoromethyl)phenyl)propoxy)phenyl)-1,2,4-oxadiazol-5-yl)pyrrolidin-1-yl)methaniminium chloride], the Ki was < 1 µM in assay [1] and > 10 µM in assay [2].
Taken in the same sequence, the figures for `N=C(N)N1C[C@H](O)C[C@H]1c1nc(-c2ccc(OCCCc3ccc(C(F)(F)F)cc3)c(C(F)(F)F)c2)no1` [Compound 33A, amino((2S,4R)-4-hydroxy-2-(3-(3-(trifluoromethyl)-4-(3-(4-(trifluoromethyl)phenyl)propoxy)phenyl)-1,2,4-oxadiazol-5-yl)pyrrolidin-1-yl)methaniminium chloride] were < 1 µM and > 10 µM.
Taken in the same sequence, the figures for `CCCc1ccc(CCc2ccc(-c3noc([C@@H]4[C@@H](O)CCN4C(=N)N)n3)cc2C(F)(F)F)cc1` [Compound 34A, (2S,3S)-3-hydroxy-2-(3-(4-(4-propylphenethyl)-3-(trifluoromethyl)phenyl)-1,2,4-oxadiazol-5-yl)pyrrolidine-1-carboximidamide hydrochloride] were < 1 µM and 1 to 10 µM.
